In assay [1] the test system is RKO cells. In words: RKO Methylation Assay (In Cell Western for mono-methyl arginine and DNA content). In kind it is cell-based. The following applies: Homo sapiens, RKO, 72 h. The source says:
RKO adherent cells were purchased from ATCC (American Type Culture Collection), Manassas, Va., USA. DMEM/Glutamax medium, penicillin-streptomycin, heat inactivated fetal bovine serum, 0.05% trypsin and D-PBS were purchased from Life Technologies, Grand Island, N.Y., USA. Odyssey blocking buffer, 800CW goat anti-rabbit IgG (H+L) antibody, and Licor Odyssey infrared scanner were purchased from Licor Biosciences, Lincoln, Nebr., USA. Mono-methyl arginine antibody was purchased from Cell Signaling Technology, Danvers, Mass., USA. Methanol was purchased from VWR, Franklin, Mass., USA. 10% Tween 20 was purchased from KPL, Inc., Gaithersburg, Md., USA. DRAQ5 was purchased from Biostatus Limited, Leicestershire, UK.
RKO adherent cells were maintained in growth medium (DMEM/Glutamax medium supplemented with 10% v/v heat inactivated fetal bovine serum and 100 units/mL penicillin-streptomycin) and cultured at 37° C. under 5% CO2.
Cell Treatment, in Cell Western (ICW) for Detection of Mono-Methyl Arginine and DNA Content.
Compound (100 nL) from a 96-well source plate was added directly to 384 well cell plate. Plates were incubated at 37° C., 5% CO2 for 72 hours. After three days of incubation, plates were brought to room temperature outside of the incubator for ten minutes and blotted on paper towels to remove cell media. 50 μL of ice cold 100% methanol was added directly to each well and incubated for 30 min at room temperature. After 30 min, plates were transferred to a Biotek EL406 plate washer and washed 2 times with 100 μL per well of wash buffer (1×PBS). Next 60 μL per well of Odyssey blocking buffer (Odyssey Buffer with 0.1% Tween 20 (v/v)) were added to each plate and incubated 1 hour at room temperature. Blocking buffer was removed and 20 μL per well of primary antibody was added (mono-methyl arginine diluted 1:200 in Odyssey buffer with 0.1% Tween 20 (v/v)) and plates were incubated overnight (16 hours) at 4° C. Plates were washed 5 times with 100 µL per well of wash buffer. Next 20 μL per well of secondary antibody was added (1:200 800CW goat anti-rabbit IgG (H+L) antibody, 1:1000 DRAQ5 (Biostatus limited) in Odyssey buffer with 0.1% Tween 20 (v/v)) and incubated for 1 hour at room temperature. The plates were washed 5 times with 100 μL per well wash buffer then 2 times with 100 μL per well of water. Plates were allowed to dry at room temperature then imaged on the Licor Odyssey machine which measures integrated intensity at 700 nm and 800 nm wavelengths. Both 700 and 800 channels were scanned.
First, the ratio for each well was determined by:
Each plate included fourteen control wells of DMSO only treatment (minimum activation) as well as fourteen control wells for maximum activation treated with 20 μM of a reference compound. The average of the ratio values for each control type was calculated and used to determine the percent activation for each test well in the plate. Reference compound was serially diluted three-fold in DMSO for a total of nine test concentrations, beginning at 20 μM. Percent activation was determined and EC30 curves were generated using triplicate wells per concentration of compound.

Assay [2] deals with T1, PRMT1 (Homo sapiens, UniProt Q99873).
T1 construct: GST-tagged PRMT1; made in house; host or cells: High Five insect cells (baculovirus, pFastBacI)
Nature of the assay: PRMT1 Biochemical Assay (3H-SAM Flashplate, histone H4 peptide substrate). The following applies: Biochemical IC50 (Numerical, μM) PRMT1, single experiment or average of multiple experiments, Table 2a. The source says:
S-adenosylmethionine (SAM), S-adenosylhomocysteine (SAH), bicine, Tween20, dimethylsulfoxide (DMSO), bovine skin gelatin (BSG), and Tris(2-carboxyethyl)phosphine hydrochloride solution (TCEP) were purchased from Sigma-Aldrich at the highest level of purity possible. ^3H-SAM was purchase from American Radiolabeled Chemicals with a specific activity of 80 Ci/mmol. 384-well streptavidin Flashplates were purchased from PerkinElmer.
Recombinant baculovirus were generated according to Bac-to-Bac kit instructions (Life Technologies). Protein over-expression was accomplished by infecting exponentially growing High Five insect cell culture at 1.5×10^6 cell/ml with 1:100 ratio of virus. Infections were carried out at 27° C. for 48 hours, harvested by centrifugation, and stored at −80° C. for purification.
GST-tagged PRMT1 was eluted with 50 mM Tris, 2 mM glutathione, pH 7.8, dialysed in buffer A and concentrated to 1 mg/mL.
General Procedure for PRMT1 Enzyme Assays on Peptide Substrates.
The assays were all performed in a buffer consisting of 20 mM Bicine (pH=7.6), 1 mM TCEP, 0.005% BSG, and 0.002% Tween 20, prepared on the day of use. […] DMSO (1 ul) was added to Columns 11, 12, 23, 24, rows A-H for the maximum signal control and 1 ul of SAH, a known product and inhibitor of PRMT1, was added to columns 11, 12, 23, 24, rows I-P for the minimum signal control. A cocktail (40 ul) containing the PRMT1 enzyme was added by Multidrop Combi (Thermo-Fisher). The compounds were allowed to incubate with PRMT1 for 30 min at room temperature, then a cocktail (10 ul) containing SAM and peptide was added to initiate the reaction (final volume=51 ul). […] The assays were stopped by the addition of non-radiolabeled SAM (10 ul) to a final concentration of 300 uM, which dilutes the ^3H-SAM to a level where its incorporation into the peptide substrate is no longer detectable. […] The plates were then read in a PerkinElmer TopCount plate reader to measure the quantity of ^3H-labeled peptide bound to the Flashplate surface, measured as disintegrations per minute (dpm) or alternatively, referred to as counts per minute (cpm).
Where dpm=disintegrations per minute, cmpd=signal in assay well, and min and max are the respective minimum and maximum signal controls.
Where top and bottom are the normally allowed to float, but may be fixed at 100 or 0 respectively in a 3-parameter fit. The Hill Coefficient normally allowed to float but may also be fixed at 1 in a 3-parameter fit. Y is the % inhibition and X is the compound concentration.

Setting [3] is: read-out: In Cell Western data (Numerical, μM) EC30.
The mark [4] stands for this setting: read-out: In Cell Western data EC30.

Read-outs that look alike come from different tables or passages of the source.

Our source for the EC30 and IC50 values is patent US20160039767A1, “PYRAZOLE DERIVATIVES AS PRMT1 INHIBITORS AND USES THEREOF” (EPIZYME, INC., priority 2013, published 2016).

T1 sequence (Q99873 with tags, fused parts or gaps): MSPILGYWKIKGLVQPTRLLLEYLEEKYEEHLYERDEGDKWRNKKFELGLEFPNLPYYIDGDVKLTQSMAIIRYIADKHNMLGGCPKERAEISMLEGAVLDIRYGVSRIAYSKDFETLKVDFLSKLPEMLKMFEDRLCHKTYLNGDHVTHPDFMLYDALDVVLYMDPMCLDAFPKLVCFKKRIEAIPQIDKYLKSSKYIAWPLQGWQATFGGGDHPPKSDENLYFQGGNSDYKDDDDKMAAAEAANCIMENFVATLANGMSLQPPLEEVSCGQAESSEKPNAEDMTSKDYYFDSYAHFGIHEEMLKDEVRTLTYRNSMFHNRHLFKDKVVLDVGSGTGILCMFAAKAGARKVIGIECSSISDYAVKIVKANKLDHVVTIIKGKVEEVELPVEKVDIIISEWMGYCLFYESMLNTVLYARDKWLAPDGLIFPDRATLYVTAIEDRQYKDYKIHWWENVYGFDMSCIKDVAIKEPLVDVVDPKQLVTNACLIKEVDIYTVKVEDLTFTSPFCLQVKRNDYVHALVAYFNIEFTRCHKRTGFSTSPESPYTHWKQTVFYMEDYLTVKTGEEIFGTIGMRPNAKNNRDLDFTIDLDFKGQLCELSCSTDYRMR

As usually defined, the EC30 is the concentration needed for an effect of 30%. The IC50 is the concentration needed to halve the response being measured. Low values mean inhibition by little substance, high ones a need for much substance. `CNCCN(C)Cc1c[nH]nc1-c1cc(Cl)c(OC(C)C)c(C(F)(F)F)c1` [Compound 25]: the EC30 is 0.983 µM in assay [1] (setting [3]) and < 3 µM in assay [1] (setting [4]). This molecule came in with a half-maximal inhibitory concentration (IC50) in assay [2] of 0.0101 µM.
In the case of `CNCCN(C)Cc1c[nH]nc1-c1cc(OCCOC)c(F)c(C(F)(F)F)c1` [Compound 64], the concentration for an effect of 30% (EC30) was 13.2 µM in assay [1] (setting [3]) and > 12 µM in assay [1] (setting [4]). Also, the concentration for half-maximal inhibition (IC50) in assay [2] was 0.104 µM.
On to `CNCCN(C)Cc1c[nH]nc1-c1cc(C)c(OCC2CCC2)c(C(F)(F)F)c1` [Compound 58], for which the concentration for an effect of 30% (EC30) was 0.547 µM in assay [1] (setting [3]) and < 3 µM in assay [1] (setting [4]). The same molecule registered a half-inhibitory concentration (IC50) in assay [2] of 0.00706 µM.
For `CNCCN(C)Cc1c[nH]nc1-c1cc(OCC2CCC2)cc(C(F)(F)F)c1` [Compound 44], in that order: 4.52 µM, 3.01 to 12 µM and 0.0132 µM.
`CNCCN(C)Cc1c[nH]nc1-c1cc(C)c(OC2COC2)c(C(F)(F)F)c1` [Compound 66]: the concentration for an effect of 30% (EC30) was 0.724 µM in assay [1] (setting [3]) and < 3 µM in assay [1] (setting [4]). For the same molecule, in assay [2], the concentration for half-maximal inhibition (IC50) is 0.00756 µM.
